# Test results taken from the NIST ThermoML archive (doi:10.1016/j.fluid.2016.01.050).
# ± gives the expanded uncertainty stated by the source.
# Columns and labels:
# [1] = 298 K; 101.33 kPa; Liquid; Vibrating tube method
# [2] = refractive index (Na D-line) (dimensionless); settings: 298 K; 101.33 kPa; Liquid; Standard Abbe refractometry
mass density [1] [kg/m3],refractive index [2],Structure (SMILES)
1039.32 ± 0.4,1.56019 ± 0.00042,c1ccc(COCc2ccccc2)cc1 [dibenzyl ether]
1006.48 ± 0.38,1.52467 ± 0.00042,CC(O)c1ccccc1 (stereo not drawn) [1-phenylethanol]
935.04 ± 0.37,1.40718 ± 0.00042,CCCCC(=O)O [pentanoic acid]

Structure (SMILES),mass density [1] [kg/m3],refractive index [2]
Clc1ccccc1 [chlorobenzene],1101.08 ± 0.44,1.52165 ± 0.00042
